Consider 16 molecules from US20170145472A1, “METHOD OF DETECTING HELICASE ACTIVITY” (University of Macau, priority 2015, published 2017).

One series has as its target T1, HCV NS3 helicase (Hepatitis C virus genotype 1a, UniProt P27958).
T1 construct: upon the addition of 0.8 μM HCV NS3 helicase; purchased Prospec Inc. (Ness-Ziona, Israel)
Briefly: G-quadruplex-based luminescent HCV NS3 helicase activity assay. Format: biochemical. To be noted: for inhibitory activity towards HCV NS3 helicase: 10 μM inhibitor, 0.8 μM helicase. How it is done:
The random-coil oligonucleotides ON1 (100 μM) and ON2 (100 μM) were incubated in Tris buffer (20 mM, pH 7.0). The solution was heated at a temperature of 72-98° C., in particular 95° C., for at least 30 seconds in particular 10 min, cooled to room temperature at 0.1° C./s, and further incubated at room temperature for 1 hour to ensure formation of the duplex substrate. The annealed product was stored at −20° C. before use. For assaying enzyme activity, 50 μL of Tris buffered solution (5 mM Tris-HCl, 5 mM NaCl, 1 mM MgCl2, 1 mM ATP, 0.1 mM DTT, pH 7.9) with the indicated concentrations of helicase or S1, Endo, DpnI, ExoI, EcoRI, RNase, DNase, and SSB were added to a solution containing the duplex substrate (0.25 μM). The mixture was heated to 37° C. for at least 30 minutes, e.g. 2 hours, to allow the indicated enzymes-catalyzed unwinding of the duplex substrate to take place. The duplex unwinding reaction was quenched by the addition of EDTA at a final concentration of 20 mM, and the mixture was subsequently diluted using Tris buffer (20 mM Tris, 20 mM KCl, 150 mM NH4Ac, pH 7.2) to a final volume of 500 μL. […] Emission spectra were recorded in the 500-720 nm range using an excitation wavelength of 360 nm.
For the detection of helicase activity in cell extract, 50 μL of Tris buffered solution (5 mM Tris-HCl, 5 mM NaCl, 1 mM MgCl2, 1 mM ATP, 0.1 mM DTT, pH 7.9) and the indicated concentrations of helicase were added to a solution containing the duplex substrate (0.25 μM) and cell extract. The mixture was heated to 37° C. for at least 30 minutes, e.g. 2 hours, to allow the helicase-catalyzed unwinding of the duplex substrate to take place. The duplex unwinding reaction was quenched by the addition of EDTA at a final concentration of 20 mM, and the mixture was subsequently diluted using Tris buffer (20 mM Tris, 20 mM KCl, 150 mM NH4Ac, pH 7.2) to a final volume of 500 μL. Finally, 1 μM of complex 9 was added to the mixture. Emission spectra were recorded in the 500-720 nm range using an excitation wavelength of 360 nm.

Another series deals with PS2.M G-quadruplex DNA. In words: Luminescence response of Ir(III) complexes towards different forms of DNA. Format: binding. As to conditions: complex 1 μM, DNA 5 μM; PS2.M G-quadruplex vs ds17 and CCR5-DEL. The text has this:
M G-quadruplex DNA (G4) over dsDNA (ds17) and ssDNA (CCRS-DEL), in particular IG4/IdsDNA refers to the ratio of the luminescent response of PS2. M G-quadruplex DNA over dsDNA (ds17); and IG4/IssDNA refers to the ratio of the luminescent response of PS2. M G-quadruplex DNA over ssDNA(CCR5-DEL).
M G-quadruplex DNA over dsDNA (ds17) and ssDNA (CCRS-DEL), in particular IG4/IdsDNA refers to the ratio of the luminescent response of PS2. M G-quadruplex DNA over dsDNA (ds17); and IG4/IssDNA refers to the ratio of the luminescent response of PS2. M G-quadruplex DNA over ssDNA(CCR5-DEL).
The G-quadruplex DNA-forming sequence (PS2. M) was annealed in Tris-HCl buffer (20 mM Tris, 100 mM KCl, pH 7.0) and were stored at −20° C. or less than −20° C. before use. Complex 1-17 (1 μM) was added to 5 μM of ssDNA, dsDNA or PS2. M G-quadruplex DNA in Tris-HCl buffer (20 mM Tris, pH 7.0).

Series [1] can be described thus: Photophysical measurement. To be noted: for Quantum yield: reference [Ru(bpy)3][PF6]2 in degassed acetonitrile. Format: physicochemical. How it is done:
Emission spectra and lifetime measurements for complexes were performed on a PTI TimeMaster C720 Spectrometer (Nitrogen laser: pulse output 337 nm) fitted with a 380 nm filter. Error limits were estimated: λ (±1 nm); τ (±10%); φ (±10%). All solvents used for the lifetime measurements were degassed using three cycles of freeze-vac-thaw.
Luminescence quantum yields were determined using the method of Demas and Crosby [Ru(bpy)3][PF6]2 in degassed acetonitrile as a standard reference solution (Φr=0.062) and calculated according to the following equation:
Φs=Φr(Br/Bs)(ns/nr)^2(Ds/Dr) • where the subscripts s and r refer to sample and reference standard solution respectively, n is the refractive index of the solvents, D is the integrated intensity, and Φ is the luminescence quantum yield. The quantity B was calculated by B=1−10^−AL, where A is the absorbance at the excitation wavelength and L is the optical path length.

The target of another series is T2, helicase (Hepatitis C virus genotype 1a, UniProt P27958).
T2 construct: upon the addition of 0.8 μM HCV NS3 helicase; purchased Prospec Inc. (Ness-Ziona, Israel)
T2 sequence (P27958 1027-1657): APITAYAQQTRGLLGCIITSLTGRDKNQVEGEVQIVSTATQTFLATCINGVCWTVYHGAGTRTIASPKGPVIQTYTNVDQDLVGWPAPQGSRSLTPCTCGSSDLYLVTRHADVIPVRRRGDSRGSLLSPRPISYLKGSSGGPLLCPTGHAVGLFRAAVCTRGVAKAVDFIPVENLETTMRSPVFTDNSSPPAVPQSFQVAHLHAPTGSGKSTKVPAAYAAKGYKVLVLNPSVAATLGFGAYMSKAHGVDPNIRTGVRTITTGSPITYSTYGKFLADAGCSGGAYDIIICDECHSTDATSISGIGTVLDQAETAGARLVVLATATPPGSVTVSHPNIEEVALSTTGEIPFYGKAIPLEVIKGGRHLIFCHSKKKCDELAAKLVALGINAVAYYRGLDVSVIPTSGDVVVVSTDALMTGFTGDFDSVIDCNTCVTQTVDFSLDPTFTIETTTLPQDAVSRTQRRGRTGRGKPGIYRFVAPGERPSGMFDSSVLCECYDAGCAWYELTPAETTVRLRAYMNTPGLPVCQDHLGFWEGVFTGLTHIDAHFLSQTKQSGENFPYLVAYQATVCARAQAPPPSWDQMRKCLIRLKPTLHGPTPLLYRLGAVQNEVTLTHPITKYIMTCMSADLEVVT
Briefly: Luminescence response of complexes towards helicase alone. As to conditions: helicase alone, no DNA. The text has this: M G-quadruplex DNA over helicase, IG4/Ihelicase refers to the ratio of the lunminscent response of PS2. M G-quadruplex DNA over helicase.

T1 sequence (P27958 1027-1657): as above

For `Brc1c(Br)c(Br)c2n[nH]nc2c1Br` [TBBT, reference compound], the “inhibitory activity towards HCV NS3 helicase” value at HCV NS3 helicase is on record as “displayed inhibitory activity”.

As to `F[P-](F)(F)(F)(F)F.[Ir+3].[c-]1ccccc1-c1ncco1.[c-]1ccccc1-c1ncco1.c1ccc(-c2ccccn2)nc1` [Complex 6], the “selectivity of luminescence response for G-quadruplex DNA over dsDNA and ssDNA” value (“selectivity of luminescence response” for short) in the series with PS2.M G-quadruplex DNA is “non-selective for G-quadruplex DNA”. In series [1], this molecule returned a Lifetime of 0.28 μs, a λem of 580 nm and a Quantum yield of 0.089.

Regarding `Cc1cccc2[n+]1[Ir-3]13([c]4ccccc4-2)([c]2ccccc2-c2cccc(C)[n+]21)[n+]1ccc(-c2ccccc2)c2ccc4c(-c5ccccc5)cc[n+]3c4c21.F[P-](F)(F)(F)(F)F` [Complex 5], the “selectivity of luminescence response” value with PS2.M G-quadruplex DNA is on record as “non-selective for G-quadruplex DNA”. In series [1], the Lifetime is on record as 1.23 μs, the λem came out at 590 nm and the Quantum yield turned out to be 0.12.

With `Cc1ccc(C(=O)Nc2ccc(S(=O)(=O)O)c3cc(S(=O)(=O)O)cc(S(=O)(=O)O)c23)cc1NC(=O)c1cccc(NC(=O)Nc2cccc(C(=O)Nc3cc(C(=O)Nc4ccc(S(=O)(=O)O)c5cc(S(=O)(=O)O)cc(S(=O)(=O)O)c45)ccc3C)c2)c1` [suramin, reference compound], at HCV NS3 helicase, the “inhibitory activity towards HCV NS3 helicase” value is reported as “displayed inhibitory activity”.

With `O=C(O)c1cn(C2CC2)c2cc(N3CCNCC3)c(F)cc2c1=O` [ciprofloxacin, reference compound], the “decrease of luminescence signal of the system” value at HCV NS3 helicase (10 μM of ciprofloxacin) was “about 40%”. On HCV NS3 helicase (ciprofloxacin 0, 1, 2.5, 5, 10, 20 μM), the “luminescence signal of the system in the presence of inhibitor” value is “diminished in the presence of ciprofloxacin in a dose-dependent manner”.

Regarding `Cc1c(C)c2cccnc2c2ncccc12.Cc1c[c-]c(-c2ccccn2)cc1.Cc1c[c-]c(-c2ccccn2)cc1.F[P-](F)(F)(F)(F)F.[Ir+3]` [Complex 2], the “luminescence enhancement in the presence of helicase only” value (“luminescence enhancement” for short) on helicase is “enhanced in the presence of helicase only”. Besides, in series [1], the Lifetime stood at 0.74 μs, the λem worked out at 577 nm and the Quantum yield is reported as 0.057.

`Clc1cc2ccc[n+]3c2c2c1ccc[n+]2[Ir-3]312([c]3ccccc3-c3[nH]c4ccccc4[n+]31)[c]1ccccc1-c1[nH]c3ccccc3[n+]12.F[P-](F)(F)(F)(F)F` [Complex 15]: in series [1], the Lifetime was determined as 2.71 μs, the λem is listed as 620 nm and the Quantum yield was 0.092.

Turning to “single-stranded DNA binding protein: single-stranded DNA binding protein (SSB) purchased from New England Biolabs”, the “response of the complex 9+G-quadruplex DNA system to other enzymes or proteins (emission intensity)” value with HCV NS3 helicase (selectivity test, enzyme in place of helicase) is listed as “relatively low emission enhancement”.

With `Clc1cc2cccnc2c2ncccc12.F[P-](F)(F)(F)(F)F.[Ir+3].[c-]1ccccc1-c1ccc2ccccc2n1.[c-]1ccccc1-c1ccc2ccccc2n1` [Complex 7], the “selectivity of luminescence response” value with PS2.M G-quadruplex DNA is “selective response for G-quadruplex DNA”. At helicase, the “luminescence enhancement” value is reported as “not showing any luminescence enhancement towards helicase”. In series [1], this molecule came in with a Lifetime of 1.34 μs, a λem of 571 nm and a Quantum yield of 0.056.

In series [1], `Cc1cc(-c2ccccc2)c2ccc3c(-c4ccccc4)cc(C)[n+]4c3c2[n+]1[Ir-3]412([c]3ccccc3-c3ccc4ccccc4[n+]31)[c]1ccccc1-c1ccc3ccccc3[n+]12.F[P-](F)(F)(F)(F)F` [Complex 12] came in with a Lifetime of 1.84 μs, a λem of 575 nm and a Quantum yield of 0.063.

In series [1], `Clc1cc2cccnc2c2ncccc12.F[P-](F)(F)(F)(F)F.[Ir+3].[c-]1ccccc1-c1ccccn1.[c-]1ccccc1-c1ccccn1` [Complex 17] came in with a Lifetime of 2.87 μs, a λem of 608 nm and a Quantum yield of 0.078.

In the case of `F[P-](F)(F)(F)(F)F.c1cc[c]2c(c1)-c1ccc3ccccc3[n+]1[Ir-3]213([c]2ccccc2-c2ccc4ccccc4[n+]21)[n+]1cccc2c4nccnc4c4ccc[n+]3c4c21` [Complex 13], in series [1], the Lifetime is on record as 4.61 μs, the λem came to 568 nm and the Quantum yield is listed as 0.067.

Turning to `Clc1cc[n+]2c3c1ccc1c(Cl)cc[n+](c13)[Ir-3]213([c]2ccccc2-c2ccc4ccccc4[n+]21)[c]1ccccc1-c1ccc2ccccc2[n+]13.F[P-](F)(F)(F)(F)F` [Complex 10], in series [1], the Lifetime is recorded as 2.89 μs, the λem was found to be 590 nm and the Quantum yield amounted to 0.086.

On to `F[P-](F)(F)(F)(F)F.c1ccc(-c2ccc3ccc4ccc(-c5ccccc5)[n+]5c4c3[n+]2[Ir-3]523([c]4ccccc4-n4ccc[n+]42)[c]2ccccc2-n2ccc[n+]23)cc1` [Complex 1], for which, on helicase, the “luminescence enhancement” value is “enhanced in the presence of helicase only”. In addition, in series [1], the Lifetime came to 3.29 μs, the λem is 629 nm and the Quantum yield came to 0.13.

`F[P-](F)(F)(F)(F)F.c1ccc(-c2cc[n+]3c(c2)-c2cc(-c4ccccc4)cc[n+]2[Ir-3]324([c]3ccccc3-c3ccc5ccccc5[n+]32)[c]2ccccc2-c2ccc3ccccc3[n+]24)cc1` [Complex 14]: in series [1], the Lifetime is listed as 4.586 μs, the λem is reported as 560 nm and the Quantum yield was found to be 0.15.

In series [1], `Cc1ccc2ccc3ccc(C)[n+]4c3c2[n+]1[Ir-3]412([c]3ccccc3-c3ccc4ccccc4[n+]31)[c]1ccccc1-c1ccc3ccccc3[n+]12.F[P-](F)(F)(F)(F)F` [Complex 11] yielded a Lifetime of 1.96 μs, a λem of 570 nm and a Quantum yield of 0.087.
